Results taken from patent publication US20240350494A1, “THERAPEUTIC MODULATION OF INTEGRINS” (Pliant Therapeutics, Inc., priority 2021, published 2024).
“Also recorded” adds a separate entry of the source.

How the values were obtained:
[1] = tested on: IPF-derived human lung fibroblasts; assay: LAP adhesion assay, IPF-derived human lung fibroblasts (express αVβ1); type: cell-based; settings: LAP-coated plates, cell index, xCELLigence; FIG. 1B
Protocol: Two latency associated peptide (LAP) adhesion binding assays were devised using primary human lung cells, including normal (healthy) human bronchial epithelial cells and human lung fibroblasts (healthy and IPF).
Human lung fibroblasts derived from normal and IPF lung tissue are known to express αVβ1 integrin. The IPF-derived human lung fibroblasts were prepared for the assay by dissociation with trypsin/EDTA, and were seeded at 20,000 cells per well on 96 well plates (ACEA Bioscience E-plate View, Acea Biosciences; San Diego, CA) previously coated with 5 µg/ml of recombinant human LAP (R&D Systems; Minneapolis, MN) and blocked with 4% bovine serum albumin. Cell index (electrical impedance) was measured to assess cell attachment/spreading every 3 minutes for 24 hours at 37° C./5% CO2 using the xCELLigence RTCA MP Instrument (Acea Biosciences; San Diego, CA). […] In the assay, the IPF-derived human lung fibroblasts were separately incubated with: the αVβ1-selective small molecule inhibitor; the selective antibody αVβ6 inhibitor, 3G9; and compound 5.

lung Col1a1 expression = assay: Precision cut lung slices, chronic bleomycin exposure, Col1a1 expression; type: cell-based, mice (C57BL/6); settings: 7 days culture
Protocol: (§1) Mice (C57BL/6) were administered 3 U/kg of bleomycin (Teva Pharmaceuticals; North Wales, PA) on Day 0 and 1 U/kg of bleomycin on days 14, 28, 42 and 56 via oropharyngeal aspiration while under anesthesia. At day 70, 14 days after the final bleomycin insult, precision cut lung slices were obtained. Following euthanization, 2% low gelling temp agarose was injected into the mouse lungs via the trachea. […] The lobes were then subjected to precision slicing to obtain samples for culture using a microtome (Compresstome VF-300-OZ, Precisionary; Greenville, NC). Individual slices were distributed in a multiwell culture plate and cultured for 7 days under control (DMSO) and test compound conditions. The viability of the slices over the course of culturing was confirmed by WST-1 assay of mitochondrial activity.
During the culture period, slices in the control group were treated with DMSO and slices in the test group were treated with a DMSO solution of one of: the selective antibody αVβ6 inhibitor 3G9; the αVβ1-selective small molecule inhibitor; a combination of the selective antibody αVβ6 inhibitor 3G9 and the αVβ1-selective small molecule inhibitor; compound 5; and the small molecule ALK5 inhibitor. The selective αVβ1 and αVβ6 integrin inhibitors were analyzed at ≥their respective IC90 concentrations for inhibition of TGF-beta activation. Compound 5 was run at approximate IC50 for inhibition of TGF-beta activation by αVβ6.
as §1, with “following” for “after”
During the culture period, slices in the control group were treated with DMSO and slices in the test group were treated with a DMSO solution of one of: compound 5; nintedanib; pirfenidone; a combination of nintedanib and compound 5; a combination of pirfenidone and compound 5; or the small molecule ALK5 inhibitor. Compound 5 was […] effective to equal or exceed its respective IC50 values at αVβ6 and αVβ1. […] Nintendanib and pirfenidone were analyzed at concentrations 10× their reported therapeutic concentrations.

αVβ6 = target: T1, αVβ6 (Homo sapiens, UniProt P06756+P18564); assay: αVβ6 target engagement in IPF lungs, [18F]FP-R01-MG-F2 PET/CT; type: in vivo; set-up: key to Vt: VT = volume of labeled tissue, from two-compartment kinetic model; key to Vs (corrected for non-displaceable binding, VND = 0.66): VT corrected for non-displaceable tracer binding (VND)
T1 construct: evaluating αVβ6 receptor occupancy in the lungs; from tissue; host or cells: lungs of living participants with IPF (in vivo PET/CT)
T1 sequence (P06756 31-889 limits assumed): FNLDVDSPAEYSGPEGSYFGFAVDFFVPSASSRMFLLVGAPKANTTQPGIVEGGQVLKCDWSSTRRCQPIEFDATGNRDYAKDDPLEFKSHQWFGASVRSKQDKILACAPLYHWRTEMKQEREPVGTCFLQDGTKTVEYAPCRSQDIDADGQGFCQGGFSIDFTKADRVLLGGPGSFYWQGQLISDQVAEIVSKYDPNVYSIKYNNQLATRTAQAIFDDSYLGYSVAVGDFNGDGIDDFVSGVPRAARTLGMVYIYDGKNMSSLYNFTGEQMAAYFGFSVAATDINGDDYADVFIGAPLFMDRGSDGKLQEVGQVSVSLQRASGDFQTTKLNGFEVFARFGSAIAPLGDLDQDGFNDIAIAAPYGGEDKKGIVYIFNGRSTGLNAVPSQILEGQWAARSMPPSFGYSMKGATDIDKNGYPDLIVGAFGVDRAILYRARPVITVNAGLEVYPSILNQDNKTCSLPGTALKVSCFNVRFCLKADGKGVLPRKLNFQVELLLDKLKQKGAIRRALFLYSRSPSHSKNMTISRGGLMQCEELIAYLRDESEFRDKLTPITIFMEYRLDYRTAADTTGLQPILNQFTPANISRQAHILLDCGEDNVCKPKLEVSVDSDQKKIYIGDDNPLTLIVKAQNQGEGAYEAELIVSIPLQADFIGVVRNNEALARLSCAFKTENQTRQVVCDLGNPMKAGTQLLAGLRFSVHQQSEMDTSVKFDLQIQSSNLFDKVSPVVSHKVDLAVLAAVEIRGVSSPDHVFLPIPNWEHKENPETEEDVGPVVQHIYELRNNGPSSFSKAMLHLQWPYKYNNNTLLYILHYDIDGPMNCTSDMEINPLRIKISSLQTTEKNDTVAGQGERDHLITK
T1 sequence (P06756 891-1048 partner limits assumed): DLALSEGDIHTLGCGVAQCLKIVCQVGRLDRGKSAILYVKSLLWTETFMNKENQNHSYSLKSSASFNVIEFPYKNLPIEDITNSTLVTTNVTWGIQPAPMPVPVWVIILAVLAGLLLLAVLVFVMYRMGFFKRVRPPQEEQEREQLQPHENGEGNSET
T1 sequence (P18564 22-788): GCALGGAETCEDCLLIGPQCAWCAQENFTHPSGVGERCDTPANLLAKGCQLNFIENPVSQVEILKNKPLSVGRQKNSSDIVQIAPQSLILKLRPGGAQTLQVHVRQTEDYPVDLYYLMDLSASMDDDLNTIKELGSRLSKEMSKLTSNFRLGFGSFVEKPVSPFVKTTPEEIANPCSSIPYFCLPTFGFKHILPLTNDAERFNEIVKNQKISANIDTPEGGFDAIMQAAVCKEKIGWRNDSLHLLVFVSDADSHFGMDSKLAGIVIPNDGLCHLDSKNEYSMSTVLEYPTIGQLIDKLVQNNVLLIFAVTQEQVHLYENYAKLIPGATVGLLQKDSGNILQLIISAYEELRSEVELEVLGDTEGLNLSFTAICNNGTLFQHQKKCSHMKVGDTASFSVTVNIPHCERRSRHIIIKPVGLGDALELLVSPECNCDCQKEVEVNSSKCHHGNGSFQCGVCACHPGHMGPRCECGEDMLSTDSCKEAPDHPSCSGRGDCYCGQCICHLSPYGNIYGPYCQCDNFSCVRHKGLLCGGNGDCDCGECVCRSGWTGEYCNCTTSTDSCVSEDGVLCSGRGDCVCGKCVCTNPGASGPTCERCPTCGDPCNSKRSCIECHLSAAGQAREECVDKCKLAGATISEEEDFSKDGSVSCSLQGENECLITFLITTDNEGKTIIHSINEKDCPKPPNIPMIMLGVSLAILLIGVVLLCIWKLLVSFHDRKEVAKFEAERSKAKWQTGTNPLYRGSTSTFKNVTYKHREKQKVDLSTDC
Protocol: The aim of this Example is to assess target engagement of the disclosed compounds to αVβ6 in participants with IPF using [^18F]FP-R01-MG-F2 PET/computerized tomography (CT) imaging.
This Example was conducted as an open-label, single-dose (60 mg, 120 mg, 240 mg or 320 mg) clinical trial evaluating αVβ6 receptor occupancy in the lungs, safety, and pharmacokinetics of Compound 5 in subjects with IPF. Knottin tracer uptake kinetics were compared pre- and post-dose of the disclosed compound, as measured by standardized uptake values (SUVs) and parameters estimated from kinetic modeling in regions-of-interest on dynamic [^18F]FP-R01-MG-F2 PET/CT scans. […] Receptor occupancy was estimated from the output of the two-compartment model (VT, the volume of labeled tissue) using standard equations and fitting algorithms, and corrections for VND (non-displaceable tracer binding). For example, in FIG. 8, the data points, shown as circles, are modeled by the following formula: […]
Five subjects with IPF were enrolled: Subject A received a single dose of 60 mg of the disclosed compound followed by a post-dose scan. Subject B received two doses of the disclosed compound separated by two weeks, 120 mg and 240 mg, each followed by a post-dose scan. Subject C received two doses of the disclosed compound separated by two weeks, 240 mg and 320 mg, each followed by a post-dose scan. Subject D received a single dose of 320 mg of the disclosed compound followed by a post-dose scan.

PRO-C3 and PRO-C6 = assay: Phase 2a trial in IPF, serum biomarkers of collagen synthesis; type: in vivo, human; settings: IPF participants
Excerpt: FIG. 27 (PRO—C3 Type III collagen synthesis neoepitope) and FIG. 28 (PRO—C6 TypeVI collagen synthesis neoepitope) compare serum biomarkers of collagen synthesis in Compound 5 groups versus placebo groups. Compound 5 decreased serum biomarkers of collagen synthesis relative to placebo. […] LS=Least Squares, SEM=Standard Error of Mean.

COCCN(CCCCc1ccc2c(n1)NCCC2)CC[C@H](Nc1ncnc2ccccc12)C(=O)O [Compound 5, (S)-4-((2-methoxyethyl)(4-(5,6,7,8-tetrahydro-1,8-naphthyridin-2-yl)butyl)amino)-2-(quinazolin-4-ylamino)butanoic acid]
inhibition of cell adhesion in the IPF-derived lung fibroblasts [1]: substantially inhibited
lung Col1a1 expression, normalized to DMSO control slices (lung Col1a1 expression; Compound 5 at approximate IC50 (αVβ6), selective inhibitors at ≥IC90, ALK5 inhibitor at 10× IC50, FIG. 3B): decreased lung Col1a1 expression substantially
decrease of lung Col1a1 expression compared with combined 3G9 and αVβ1-selective inhibitor (lung Col1a1 expression; FIG. 3B): to a greater extent than combined administration
lung slice Col1a1 expression compared to DMSO vehicle control slices (lung Col1a1 expression; nintedanib and pirfenidone at 10× therapeutic concentrations, ALK5 inhibitor at 10× IC50, FIG. 4A): substantial, statistically significant (p<0.01 vs vehicle) decrease
decrease of the volume of distribution of the knottin radiotracer in the lungs (αVβ6; 60 mg dose): approximately 50%
decrease of the volume of distribution of the knottin radiotracer in the lungs (αVβ6; 240 and 320 mg doses): greater than 95%
Receptor occupancy (αVβ6; IPF lungs, at pharmacologically relevant plasma concentrations): > 95%
Vs (corrected for non-displaceable binding, VND = 0.66) (αVβ6; Subject A, 60 mg, post-dose scan (baseline Vs 2.47)): 1.18
Vt (αVβ6; Subject A, 60 mg, post-dose scan (baseline Vt 3.13)): 1.84
% DeltaVt (αVβ6; Subject B, 120 mg): 59.76%
Vs (corrected for non-displaceable binding, VND = 0.66) (αVβ6; Subject B, 120 mg, post-dose scan (baseline Vs 2.48)): 0.99
Vt (αVβ6; Subject B, 120 mg, post-dose scan (baseline Vt 3.12)): 1.65
Vs (corrected for non-displaceable binding, VND = 0.66) (αVβ6; Subject B, 240 mg, post-dose scan (baseline Vs 2.46)): 0.06
Vt (αVβ6; Subject B, 240 mg, post-dose scan (baseline Vt 3.12)): 0.72
Vs (corrected for non-displaceable binding, VND = 0.66) (αVβ6; Subject C, 240 mg, post-dose scan (baseline Vs 1.1)): 0,32
Vt (αVβ6; Subject C, 240 mg, post-dose scan (baseline Vt 1.76)): 0.98
Vs (corrected for non-displaceable binding, VND = 0.66) (αVβ6; Subject C, 320 mg, post-dose scan (baseline Vs 1.1)): 0.19
Vt (αVβ6; Subject C, 320 mg, post-dose scan (baseline Vt 1.76)): 0.85
Vs (corrected for non-displaceable binding, VND = 0.66) (αVβ6; Subject D, 320 mg, post-dose scan (baseline Vs 1.4)): 0.09
Vt (αVβ6; Subject D, 320 mg, post-dose scan (baseline Vt 2.06)): 0.75
concentration at which the exposure response saturates (αVβ6; measured drug exposure at 4 hours, approaching 100% receptor occupancy): about 100 nM
change from baseline of serum PRO-C3 (type III collagen synthesis) vs. placebo (PRO-C3 and PRO-C6; FIG. 27): decreased; also recorded: reduced in participants receiving Compound 5 vs. placebo (not significant)
change from baseline of serum PRO-C6 (type VI collagen synthesis) vs. placebo (PRO-C3 and PRO-C6; FIG. 28): decreased; also recorded: reduced in participants receiving Compound 5 vs. placebo (not significant)
